Results published in patent publication US8263575B2, “Phosphoramidate derivatives of nucleoside compounds for use in the treatment of cancer” (Nucana Biomed Limited, priority 2005, dated 2012).
Read-outs that look alike come from different tables or passages of the source.

Experiments:
Type in all cases: cell-based
[1] = system: K562 leukemia cell line; test: MTS assay (CellTiter96 Aqueous One solution proliferation assay), K562; details: Table IA, read-out: IC50 ± standard deviation
Protocol: (§1) Compounds CPF203, CPF204, CPF194, CPF210, CPF211, CPF212, CPF218 and CPT2001 were each tested in leukaemic cell lines to assess their anti-cancer efficacy. The compounds were tested using the MTS assay reagents from Promega (CellTiter96 Aqueous One solution proliferation assay). The compounds were tested between 10 μM and 0.002 μM in four fold dilutions.
(§2) The cell lines employed are set out in Tables IA and IB below and are NB4, HL60, NB4R2, K562, KG1, and U937 leukemia cell lines.
(§3) Table IA gives the IC50±standard deviation value for each cell line and compound tested and for all the cell lines together, in μM. Included in Table IA below, as a comparative example, is corresponding cell line data for cladribine. Table IB gives the IC50 value for each cell line and compound tested. Included in Table IB below, as a comparative example, is corresponding cell line data for clofarabine.

[2] = system: NB4 leukemia cell line; test: MTS assay (CellTiter96 Aqueous One solution proliferation assay), NB4
Protocol: as §1, §2, §3

[3] = system: KG1 leukemia cell line; test: MTS assay (CellTiter96 Aqueous One solution proliferation assay), KG1; details: Table IA, read-out: IC50 ± standard deviation
Protocol: as §1, §2, §3

[4] = system: NB4R2 leukemia cell line; test: MTS assay (CellTiter96 Aqueous One solution proliferation assay), NB4R2; details: Table IA, read-out: IC50 ± standard deviation
Protocol: as §1, §2, §3

[5] = system: leukaemic cell lines; test: MTS assay, all the cell lines together; details: for IC50: All lines, Table IA, read-out: IC50 ± standard deviation, all the cell lines together; for anti-leukaemic potency/activity (in words): data of Table IA
Protocol: as §1, §2, §3

[6] = system: HL60 leukemia cell line; test: MTS assay (CellTiter96 Aqueous One solution proliferation assay), HL60; details: Table IA, read-out: IC50 ± standard deviation
Protocol: as §1, §2, §3

[7] = system: U937 leukemia cell line; test: MTS assay (CellTiter96 Aqueous One solution proliferation assay), U937
Protocol: as §1, §2, §3

[8] = NB4, Table IA, read-out: IC50 ± standard deviation
[9] = U937, Table IA, read-out: IC50 ± standard deviation

Row | Molecule | IC50 [1] [nM] | IC50 [2, 8] [nM] | IC50 [3] [nM] | IC50 [4] [nM] | IC50 [5] [nM] | IC50 [6] [nM] | IC50 [7, 9] [nM] | IC50 ([2]; NB4, Table IB, read-out: IC50) [nM] | IC50 ([7]; U937, Table IB, read-out: IC50) [nM] | anti-leukaemic potency/activity (in words) [5] | IC50 [2] [nM] | anti-cancer activity compared to clofarabine ([5]; data of Table IB (NB4, U937)) | IC50 ([7]; Homo sapiens, U-937) [nM]
1 | C[C@H](NP(=O)(OC[C@H]1O[C@@H](n2cnc3c(N)nc(Cl)nc32)C[C@@H]1O)Oc1ccc(Cl)c2ccccc12)C(=O)OCc1ccccc1 (stereo partly drawn) [CPF218, 2-chloro-2′-deoxyadenosine-5′-[4-chloro-1-naphthyl-(benzoxy-L-alaninyl)]-phosphate] | 4410 ± 950 | 270 ± 30 | 1560 ± 250 | 1090 ± 40 | 1600 ± 1470 | 1750 ± 760 | 550 ± 440 |  |  |  |  |  | 
2 | Nc1nc(Cl)nc2c1ncn2[C@@H]1O[C@H](CO)[C@@H](O)[C@@H]1F [Clofarabine, reference compound] |  |  |  |  |  |  |  | 200 | 260 |  |  |  | 
3 | C[C@H](NP(=O)(OC[C@H]1O[C@@H](n2cnc3c(N)nc(Cl)nc32)C[C@@H]1O)Oc1cccc2ccccc12)C(=O)OCc1ccccc1 (stereo partly drawn) [CPF210, 2-chloro-2′-deoxyadenosine-5′-[1-naphthyl-(benzoxy-L-alaninyl)]-phosphate] | 2360 ± 1570 | 240 ± 110 | 1800 ± 720 | 1030 ± 150 | 1040 ± 1020 | 650 ± 190 | 190 ± 90 |  |  | greater anti-leukaemic potency than the corresponding compound CPF203 |  |  | 
4 | 2-chloro-2′-deoxyadenosine-5′-[phenyl-(methoxy-L-alaninyl)]-phosphate [CPF203] |  | 1160 ± 40 | 2230 ± 690 | 2280 ± 590 | 2640 ± 2090 | 6230 ± 1750 | 1290 ± 910 |  |  |  |  |  | 
5 | C[C@H](NP(=O)(OC[C@H]1O[C@@H](n2cnc3c(N)nc(Cl)nc32)C[C@@H]1O)Oc1cccc2ccccc12)C(=O)OCc1ccccc1 (stereo partly drawn) [CPF211, 2-chloro-2′-deoxyadenosine-5′-[1-naphthyl-(benzoxy-L-alaninyl)]-phosphate] | 2280 ± 1320 | 430 ± 40 | 2630 ± 1190 | 1180 ± 210 | 1410 ± 1090 | 1660 ± 240 | 280 ± 30 |  |  |  |  |  | 
6 | Nc1nc(Cl)nc2c1ncn2[C@H]1C[C@H](O)[C@@H](CO)O1 [Cladribine, reference compound] |  | 9390 ± 4250 | 5480 ± 1860 | 7810 ± 1640 | 7210 ± 3690 | 10300 ± 3460 | 2080 ± 2750 |  |  |  |  |  | 
7 | C[C@@H](NP(=O)(OCC1OC(n2cnc3c(N)nc(Cl)nc32)C(F)C1O)Oc1ccccc1)C(=O)OCc1ccccc1 (stereo partly shown) [CPT2001] |  |  |  |  |  |  |  |  |  |  | 120 | enhanced anti-cancer activity compared to clofarabine | 80
8 | C[C@H](NP(=O)(OC[C@H]1O[C@@H](n2cnc3c(N)nc(Cl)nc32)C[C@@H]1O)Oc1cccc2ccccc12)C(=O)OCc1ccccc1 (stereo partly drawn) [CPF212, 2-chloro-2′-deoxyadenosine-5′-[1-naphthyl-(benzoxy-L-alaninyl)]-phosphate] | 5800 ± 3600 | 230 ± 40 | 1540 ± 440 | 1010 ± 390 | 1750 ± 2340 | 1780 ± 500 | 140 ± 150 |  |  |  |  |  | 
9 | C[C@H](NP(=O)(OC[C@H]1O[C@@H](n2cnc3c(N)nc(Cl)nc32)C[C@@H]1O)Oc1ccccc1)C(=O)OCc1ccccc1 (stereo partly drawn) [CPF204, 2-chloro-2′-deoxyadenosine-5′-[phenyl-(benzoxy-L-alaninyl)]-phosphate] |  | 230 ± 100 | 670 ± 200 | 630 ± 40 | 670 ± 700 | 1750 ± 890 | 80 ± 10 |  |  |  |  |  | 
10 | C[C@H](NP(=O)(OC[C@H]1O[C@@H](n2cnc3c(Cl)nc(N)nc32)C[C@@H]1O)Oc1ccccc1)C(=O)OCc1ccccc1 (stereo partly drawn) [CPF194, 2-amino-6-chloropurine-2′-deoxyriboside-5′-[phenyl-(benzoxy-L-alaninyl)]-phosphate] |  |  | 2640 ± 180 |  | 2640 ± 180 |  |  |  |  | anti-leukaemic activity demonstrated |  |  | 
